This is an account of results in patent publication US6844435B2, “Heterocyclic compounds useful as inhibitors of tyrosine kinases” (Boehringer Ingelheim Pharmaceuticals, Inc., priority 2000, dated 2005).

As for `Cn1c(Nc2c(Cl)cccc2Cl)nc2ccc3nc(C4=CC5C=CC4N5C(=O)OCc4ccccc4)[nH]c(=O)c3c21` (centres unmarked), the melting point (usually the temperature, or range, at which the solid turns liquid) was > 275 °C (dec.). The value for `Cn1c(Nc2c(Cl)cccc2Cl)nc2ccc3nc(C4=CC5C=CC4N5)[nH]c(=O)c3c21` (centres unmarked) was greater than 300 °C; that for `C/C(=C\c1cc([N+](=O)[O-])cc([N+](=O)[O-])c1)c1nc2ccc3nc(Nc4c(Cl)cccc4Cl)n(C)c3c2c(=O)[nH]1` was 315 to 317 °C (dec.); that for `CCn1c(Nc2c(Cl)cccc2Cl)nc2ccc3nc[nH]c(=O)c3c21` [Example 5, 2-(2,6-Dichlorophenylamino)-1-ethyl-1,8-dihydro-9H-imidazo[4,5-f]quinazoline-9-one] was greater than 300 °C. The figure for `Cn1c(Nc2c(Cl)cccc2Cl)nc2ccc3nc(-c4ccccc4)[nH]c(=O)c3c21` [Example 7, 2-(2,6-Dichlorophenylamino)-1-methyl-7-phenyl-1,8-dihydro-9H-imidazo[4,5-f]quinazoline-9-one] is greater than 300 °C; for `Cn1c(Nc2c(Cl)cccc2Cl)nc2ccc3nc(-c4ccoc4)[nH]c(=O)c3c21` [Example 8, 2-(2,6-Dichlorophenylamino)-1-methyl-7-furan-3-yl-1,8-dihydro-9H-imidazo[4,5-f]quinazoline-9-one] it is greater than 300 °C. `Cn1c(Nc2c(Cl)cccc2Cl)nc2ccc3nc(-c4cccc([N+](=O)[O-])c4)[nH]c(=O)c3c21` [Example 18] returned a melting point greater than 300 °C.

`Cn1c(Nc2c(Cl)cccc2Cl)nc2ccc3nc(-c4cccc(N)c4)[nH]c(=O)c3c21` [Example 19]: the melting point is 200 °C (dec.). The figure for `CCNC(=O)Nc1cccc(-c2nc3ccc4nc(Nc5c(Cl)cccc5Cl)n(C)c4c3c(=O)[nH]2)c1` [Example 20] is 251 °C (dec.); for `C=Cc1nc2ccc3nc(Nc4c(Cl)cccc4Cl)n(C)c3c2c(=O)[nH]1` [Example 21] it is 278 to 284 °C (dec.). The value for `Cn1c(Nc2c(Cl)cccc2Cl)nc2ccc3nc(-c4cccs4)[nH]c(=O)c3c21` [Example 22] was greater than 300 °C. The value for `Cn1c(Nc2c(Cl)cccc2Cl)nc2ccc3nc(-c4scc(S(C)(=O)=O)c4Cl)[nH]c(=O)c3c21` [Example 23] was 280 °C; that for `Cn1c(Nc2c(Cl)cccc2Cl)nc2ccc3nc(-c4csc(-c5cccc([N+](=O)[O-])c5)n4)[nH]c(=O)c3c21` [Example 24] was greater than 300 °C. `Cn1c(Nc2c(Cl)cccc2Cl)nc2ccc3nc(-c4ncc[nH]4)[nH]c(=O)c3c21` [Example 25] returned a melting point greater than 300 °C. The figure for `Cn1c(Nc2c(Cl)cccc2Cl)nc2ccc3nc(-c4cnc(-c5ccccc5)o4)[nH]c(=O)c3c21` [Example 26] is greater than 290 °C. Turning to `Cn1c(Nc2c(Cl)cccc2Cl)nc2ccc3nc(C(N)=O)[nH]c(=O)c3c21` [Example 27], the melting point was greater than 300 °C. As to `CC(C)=Cc1nc2ccc3nc(Nc4c(Cl)cccc4Cl)n(C)c3c2c(=O)[nH]1` [Example 28], the melting point was greater than 300 °C. The value for `Cn1c(Nc2c(Cl)cccc2Cl)nc2ccc3nc(-c4ccccn4)[nH]c(=O)c3c21` [Example 29] was greater than 300 °C; that for `Cn1c(Nc2c(Cl)cccc2Cl)nc2ccc3nc(-c4cccnc4)[nH]c(=O)c3c21` [Example 30] was greater than 300 °C; that for `Cn1c(Nc2c(Cl)cccc2Cl)nc2ccc3nc(Nc4ccccc4)[nH]c(=O)c3c21` [Example 31] was 185 to 192 °C.

In turn, `Cn1c(Nc2c(Cl)cccc2Cl)nc2ccc3nc(-c4nc(-c5ccc(OC(F)(F)F)cc5)no4)[nH]c(=O)c3c21` [Example 32] registered a melting point greater than 300 °C. In turn, `C=C(C)c1nc2ccc3nc(Nc4c(Cl)cccc4Cl)n(C)c3c2c(=O)[nH]1` [Example 33] yielded a melting point greater than 300 °C. The figure for `Cn1c(Nc2c(Cl)cccc2Cl)nc2ccc3nc(Cc4ccccc4)[nH]c(=O)c3c21` [Example 34] is > 250 °C (dec.).
